Data reported in ChEMBL document CHEMBL3991601, “The target landscape of clinical kinase drugs” (Science, 2017).
Active and inactive are the calls of the source. Rule as the data show it, for most assays here: actives have a measured Kd and inactives only a lower limit.

Biological target: Atypical kinase COQ8A, mitochondrial (Homo sapiens, UniProt Q8NI60)
Also: in the data inactive means no Kd found up to 30 µM.

Q: For `O=C(O)[C@]1(Cc2cccc(Nc3nccs3)n2)CC[C@@H](Oc2cccc(Cl)c2F)CC1` [MK-5108], which Kd is on record?
A: The Kd was > 30 µM (inactive).

Q: How did the Kd turn out when `Cc1ccc(-n2nc(C(C)(C)C)cc2NC(=O)NCc2cc(F)ccc2Oc2ccc3c(cnn3CCO)c2)cc1` [PEXMETINIB] was run?
A: Its Kd is > 30 µM (inactive).

Q: With `C=CC(=O)N1CCC(Oc2cc3c(Nc4ccc(Cl)c(Cl)c4F)ncnc3cc2OC)CC1` [POZIOTINIB] as the molecule, how does the Kd read?
A: Its Kd is > 30 µM (inactive).

Biological target: Deoxycytidine kinase (Homo sapiens, UniProt P27707)
Sequence (P27707 whole entry): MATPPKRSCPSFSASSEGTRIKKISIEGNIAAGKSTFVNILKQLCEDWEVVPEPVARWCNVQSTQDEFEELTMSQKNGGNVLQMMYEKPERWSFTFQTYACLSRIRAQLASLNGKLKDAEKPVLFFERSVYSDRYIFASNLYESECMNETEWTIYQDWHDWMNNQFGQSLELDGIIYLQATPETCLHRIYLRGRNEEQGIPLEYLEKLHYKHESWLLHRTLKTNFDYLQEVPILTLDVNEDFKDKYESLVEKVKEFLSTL

Q: Which Kd does the source give for `O=C(O)[C@]1(Cc2cccc(Nc3nccs3)n2)CC[C@@H](Oc2cccc(Cl)c2F)CC1` [MK-5108] here?
A: Its Kd is > 30 µM (inactive).

Q: How did the Kd turn out when `Cc1ccc(-n2nc(C(C)(C)C)cc2NC(=O)NCc2cc(F)ccc2Oc2ccc3c(cnn3CCO)c2)cc1` [PEXMETINIB] was run?
A: The Kd was > 30 µM (inactive).

Q: Which Kd does the source give for `C=CC(=O)N1CCC(Oc2cc3c(Nc4ccc(Cl)c(Cl)c4F)ncnc3cc2OC)CC1` [POZIOTINIB] here?
A: The Kd was > 30 µM (inactive).

Biological target: ATP-dependent RNA helicase DDX3X (Homo sapiens, UniProt O00571)
Sequence (O00571 whole entry): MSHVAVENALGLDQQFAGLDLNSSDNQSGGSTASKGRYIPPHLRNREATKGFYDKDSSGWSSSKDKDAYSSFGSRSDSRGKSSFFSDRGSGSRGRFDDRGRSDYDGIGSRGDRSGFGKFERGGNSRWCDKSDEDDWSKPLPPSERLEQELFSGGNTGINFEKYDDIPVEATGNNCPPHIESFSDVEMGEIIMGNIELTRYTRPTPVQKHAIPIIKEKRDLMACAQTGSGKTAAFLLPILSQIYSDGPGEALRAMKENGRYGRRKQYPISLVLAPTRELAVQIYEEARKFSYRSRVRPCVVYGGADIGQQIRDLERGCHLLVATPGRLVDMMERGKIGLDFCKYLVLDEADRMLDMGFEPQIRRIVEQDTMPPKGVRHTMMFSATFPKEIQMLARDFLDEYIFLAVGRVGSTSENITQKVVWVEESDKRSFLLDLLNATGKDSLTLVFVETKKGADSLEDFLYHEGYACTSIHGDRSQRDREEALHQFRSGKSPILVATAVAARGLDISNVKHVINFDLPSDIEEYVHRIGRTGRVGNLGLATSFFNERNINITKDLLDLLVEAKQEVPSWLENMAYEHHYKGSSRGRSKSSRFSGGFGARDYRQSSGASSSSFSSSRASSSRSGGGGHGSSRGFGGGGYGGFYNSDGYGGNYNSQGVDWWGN

Q: For `O=C(O)[C@]1(Cc2cccc(Nc3nccs3)n2)CC[C@@H](Oc2cccc(Cl)c2F)CC1` [MK-5108], which Kd is on record?
A: Its Kd is > 30 µM (inactive).

Q: For `Cc1ccc(-n2nc(C(C)(C)C)cc2NC(=O)NCc2cc(F)ccc2Oc2ccc3c(cnn3CCO)c2)cc1` [PEXMETINIB], which Kd is on record?
A: The Kd was > 30 µM (inactive).

Q: How did the Kd turn out when `C=CC(=O)N1CCC(Oc2cc3c(Nc4ccc(Cl)c(Cl)c4F)ncnc3cc2OC)CC1` [POZIOTINIB] was run?
A: Its Kd is > 30 µM (inactive).

Biological target: Tyrosine-protein kinase Fer (Homo sapiens, UniProt P16591)
Sequence (P16591 whole entry): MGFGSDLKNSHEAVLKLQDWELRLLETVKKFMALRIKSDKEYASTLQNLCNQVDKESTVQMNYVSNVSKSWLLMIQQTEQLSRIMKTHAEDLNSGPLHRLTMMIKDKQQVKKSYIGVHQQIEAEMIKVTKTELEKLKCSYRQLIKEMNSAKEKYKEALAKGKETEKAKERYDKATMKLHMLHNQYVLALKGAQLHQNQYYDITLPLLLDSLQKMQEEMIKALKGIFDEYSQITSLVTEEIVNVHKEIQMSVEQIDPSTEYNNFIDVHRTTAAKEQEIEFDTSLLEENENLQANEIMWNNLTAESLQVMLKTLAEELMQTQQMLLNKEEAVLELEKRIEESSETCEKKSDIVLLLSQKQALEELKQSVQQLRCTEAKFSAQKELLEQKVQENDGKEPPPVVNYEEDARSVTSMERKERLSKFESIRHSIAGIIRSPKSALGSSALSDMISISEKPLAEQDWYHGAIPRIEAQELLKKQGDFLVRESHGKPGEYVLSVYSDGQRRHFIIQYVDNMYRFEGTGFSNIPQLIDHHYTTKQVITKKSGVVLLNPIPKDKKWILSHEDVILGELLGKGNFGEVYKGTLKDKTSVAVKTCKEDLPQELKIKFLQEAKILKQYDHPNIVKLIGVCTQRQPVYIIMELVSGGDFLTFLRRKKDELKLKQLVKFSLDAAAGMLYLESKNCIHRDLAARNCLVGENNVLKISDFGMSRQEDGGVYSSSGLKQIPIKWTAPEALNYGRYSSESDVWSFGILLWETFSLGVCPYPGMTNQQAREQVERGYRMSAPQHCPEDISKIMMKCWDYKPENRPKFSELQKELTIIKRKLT

Q: How did the Kd turn out when `O=C(O)[C@]1(Cc2cccc(Nc3nccs3)n2)CC[C@@H](Oc2cccc(Cl)c2F)CC1` [MK-5108] was run?
A: The Kd was 1.54 µM (active).

Q: With `Cc1ccc(-n2nc(C(C)(C)C)cc2NC(=O)NCc2cc(F)ccc2Oc2ccc3c(cnn3CCO)c2)cc1` [PEXMETINIB] as the molecule, how does the Kd read?
A: Its Kd is > 30 µM (inactive).

Q: Which Kd does the source give for `C=CC(=O)N1CCC(Oc2cc3c(Nc4ccc(Cl)c(Cl)c4F)ncnc3cc2OC)CC1` [POZIOTINIB] here?
A: Its Kd is > 30 µM (inactive).

Biological target: Tyrosine-protein kinase Lyn (Homo sapiens, UniProt P07948)
Sequence (P07948 whole entry): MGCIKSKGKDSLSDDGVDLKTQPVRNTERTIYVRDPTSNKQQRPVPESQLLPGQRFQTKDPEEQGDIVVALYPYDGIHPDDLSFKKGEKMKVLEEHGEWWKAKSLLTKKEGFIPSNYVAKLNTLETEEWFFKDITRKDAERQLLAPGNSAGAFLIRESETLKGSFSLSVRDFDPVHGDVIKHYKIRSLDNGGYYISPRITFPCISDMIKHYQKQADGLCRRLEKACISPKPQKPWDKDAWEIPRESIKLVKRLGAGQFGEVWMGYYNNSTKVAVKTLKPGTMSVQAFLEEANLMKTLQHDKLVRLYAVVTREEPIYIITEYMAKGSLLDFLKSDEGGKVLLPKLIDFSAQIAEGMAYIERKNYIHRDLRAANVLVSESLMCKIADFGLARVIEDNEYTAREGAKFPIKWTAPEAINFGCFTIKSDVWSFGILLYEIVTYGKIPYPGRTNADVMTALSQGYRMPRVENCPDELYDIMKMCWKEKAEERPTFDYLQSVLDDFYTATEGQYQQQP

Q: `O=C(O)[C@]1(Cc2cccc(Nc3nccs3)n2)CC[C@@H](Oc2cccc(Cl)c2F)CC1` [MK-5108] was tested. Which Kd did it give?
A: The Kd was > 30 µM (inactive).

Q: Which Kd does the source give for `Cc1ccc(-n2nc(C(C)(C)C)cc2NC(=O)NCc2cc(F)ccc2Oc2ccc3c(cnn3CCO)c2)cc1` [PEXMETINIB] here?
A: Its Kd is 2.5 µM (active).

Q: `C=CC(=O)N1CCC(Oc2cc3c(Nc4ccc(Cl)c(Cl)c4F)ncnc3cc2OC)CC1` [POZIOTINIB] was tested. Which Kd did it give?
A: The Kd was > 30 µM (inactive).

Biological target: Mitogen-activated protein kinase kinase kinase 1 (Homo sapiens, UniProt Q13233)

Q: With `O=C(O)[C@]1(Cc2cccc(Nc3nccs3)n2)CC[C@@H](Oc2cccc(Cl)c2F)CC1` [MK-5108] as the molecule, how does the Kd read?
A: The Kd was > 30 µM (inactive).

Q: With `Cc1ccc(-n2nc(C(C)(C)C)cc2NC(=O)NCc2cc(F)ccc2Oc2ccc3c(cnn3CCO)c2)cc1` [PEXMETINIB] as the molecule, how does the Kd read?
A: Its Kd is > 30 µM (inactive).

Q: For `C=CC(=O)N1CCC(Oc2cc3c(Nc4ccc(Cl)c(Cl)c4F)ncnc3cc2OC)CC1` [POZIOTINIB], which Kd is on record?
A: Its Kd is > 30 µM (inactive).

Biological target: T1, Mitogen-activated protein kinase kinase kinase 2 (Homo sapiens, UniProt Q9Y2U5)
T1 sequence (Q9Y2U5 whole entry): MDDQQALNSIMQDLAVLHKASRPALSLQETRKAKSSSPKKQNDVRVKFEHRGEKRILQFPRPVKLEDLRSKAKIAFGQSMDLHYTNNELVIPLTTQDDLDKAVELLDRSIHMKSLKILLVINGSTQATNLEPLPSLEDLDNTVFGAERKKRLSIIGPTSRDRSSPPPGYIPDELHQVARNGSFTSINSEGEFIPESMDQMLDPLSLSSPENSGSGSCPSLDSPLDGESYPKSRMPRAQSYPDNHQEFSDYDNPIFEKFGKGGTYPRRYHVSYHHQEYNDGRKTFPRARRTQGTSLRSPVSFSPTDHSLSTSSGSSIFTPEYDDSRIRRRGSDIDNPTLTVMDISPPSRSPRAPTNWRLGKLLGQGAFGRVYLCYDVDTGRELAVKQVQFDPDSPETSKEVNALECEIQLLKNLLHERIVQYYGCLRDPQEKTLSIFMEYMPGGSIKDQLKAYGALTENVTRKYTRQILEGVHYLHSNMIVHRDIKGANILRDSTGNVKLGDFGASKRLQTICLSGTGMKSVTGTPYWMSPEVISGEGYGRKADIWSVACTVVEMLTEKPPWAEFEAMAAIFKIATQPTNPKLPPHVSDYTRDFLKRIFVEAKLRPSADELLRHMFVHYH

Q: `O=C(O)[C@]1(Cc2cccc(Nc3nccs3)n2)CC[C@@H](Oc2cccc(Cl)c2F)CC1` [MK-5108] was tested. Which Kd did it give?
A: The Kd was > 30 µM (inactive).

Q: How did the Kd turn out when `Cc1ccc(-n2nc(C(C)(C)C)cc2NC(=O)NCc2cc(F)ccc2Oc2ccc3c(cnn3CCO)c2)cc1` [PEXMETINIB] was run?
A: The Kd was > 30 µM (inactive).

Q: `C=CC(=O)N1CCC(Oc2cc3c(Nc4ccc(Cl)c(Cl)c4F)ncnc3cc2OC)CC1` [POZIOTINIB] was tested. Which Kd did it give?
A: The Kd was > 30 µM (inactive).

Biological target: MAP kinase-activated protein kinase 2 (Homo sapiens, UniProt P49137)
Sequence (P49137 whole entry): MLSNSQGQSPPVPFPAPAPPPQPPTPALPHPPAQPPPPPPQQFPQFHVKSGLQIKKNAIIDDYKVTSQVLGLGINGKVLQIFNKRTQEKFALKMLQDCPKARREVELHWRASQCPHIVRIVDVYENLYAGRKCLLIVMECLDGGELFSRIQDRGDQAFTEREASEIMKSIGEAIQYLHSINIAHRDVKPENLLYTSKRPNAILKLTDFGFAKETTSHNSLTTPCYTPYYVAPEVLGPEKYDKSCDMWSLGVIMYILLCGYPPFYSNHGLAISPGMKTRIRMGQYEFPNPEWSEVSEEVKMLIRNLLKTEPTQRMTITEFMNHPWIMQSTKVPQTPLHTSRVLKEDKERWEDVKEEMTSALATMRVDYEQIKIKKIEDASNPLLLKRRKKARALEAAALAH

Q: How did the Kd turn out when `O=C(O)[C@]1(Cc2cccc(Nc3nccs3)n2)CC[C@@H](Oc2cccc(Cl)c2F)CC1` [MK-5108] was run?
A: Its Kd is > 30 µM (inactive).

Q: `Cc1ccc(-n2nc(C(C)(C)C)cc2NC(=O)NCc2cc(F)ccc2Oc2ccc3c(cnn3CCO)c2)cc1` [PEXMETINIB] was tested. Which Kd did it give?
A: Its Kd is 0.067 µM (active).

Q: `C=CC(=O)N1CCC(Oc2cc3c(Nc4ccc(Cl)c(Cl)c4F)ncnc3cc2OC)CC1` [POZIOTINIB] was tested. Which Kd did it give?
A: Its Kd is > 30 µM (inactive).

Biological target: T2, ATP-dependent 6-phosphofructokinase, platelet type (Homo sapiens, UniProt Q01813)
T2 sequence (Q01813 whole entry): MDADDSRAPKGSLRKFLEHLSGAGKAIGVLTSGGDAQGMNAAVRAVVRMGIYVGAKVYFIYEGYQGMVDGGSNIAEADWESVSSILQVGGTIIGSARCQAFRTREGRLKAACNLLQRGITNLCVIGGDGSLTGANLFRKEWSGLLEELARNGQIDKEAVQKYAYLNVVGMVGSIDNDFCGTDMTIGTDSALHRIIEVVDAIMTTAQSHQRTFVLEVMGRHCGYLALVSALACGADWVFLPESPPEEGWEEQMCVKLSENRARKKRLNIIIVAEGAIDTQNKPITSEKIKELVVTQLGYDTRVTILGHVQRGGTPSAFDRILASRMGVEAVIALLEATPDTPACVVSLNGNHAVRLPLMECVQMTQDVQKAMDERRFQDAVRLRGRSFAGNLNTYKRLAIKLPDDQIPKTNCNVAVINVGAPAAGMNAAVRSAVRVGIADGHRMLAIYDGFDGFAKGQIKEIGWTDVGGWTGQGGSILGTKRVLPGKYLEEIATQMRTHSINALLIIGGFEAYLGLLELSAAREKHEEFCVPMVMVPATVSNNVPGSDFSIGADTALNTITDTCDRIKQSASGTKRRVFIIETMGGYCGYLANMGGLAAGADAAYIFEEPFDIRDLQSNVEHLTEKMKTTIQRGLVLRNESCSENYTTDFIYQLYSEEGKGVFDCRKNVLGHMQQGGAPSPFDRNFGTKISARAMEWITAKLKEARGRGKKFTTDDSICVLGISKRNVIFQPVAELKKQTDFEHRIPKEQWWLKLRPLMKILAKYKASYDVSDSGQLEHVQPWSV

Q: `O=C(O)[C@]1(Cc2cccc(Nc3nccs3)n2)CC[C@@H](Oc2cccc(Cl)c2F)CC1` [MK-5108] was tested. Which Kd did it give?
A: Its Kd is > 30 µM (inactive).

Q: How did the Kd turn out when `Cc1ccc(-n2nc(C(C)(C)C)cc2NC(=O)NCc2cc(F)ccc2Oc2ccc3c(cnn3CCO)c2)cc1` [PEXMETINIB] was run?
A: Its Kd is > 30 µM (inactive).

Q: For `C=CC(=O)N1CCC(Oc2cc3c(Nc4ccc(Cl)c(Cl)c4F)ncnc3cc2OC)CC1` [POZIOTINIB], which Kd is on record?
A: The Kd was > 30 µM (inactive).

Biological target: Ribosomal protein S6 kinase alpha-4 (Homo sapiens, UniProt O75676)

Q: How did the Kd turn out when `O=C(O)[C@]1(Cc2cccc(Nc3nccs3)n2)CC[C@@H](Oc2cccc(Cl)c2F)CC1` [MK-5108] was run?
A: The Kd was > 30 µM (inactive).

Q: Which Kd does the source give for `Cc1ccc(-n2nc(C(C)(C)C)cc2NC(=O)NCc2cc(F)ccc2Oc2ccc3c(cnn3CCO)c2)cc1` [PEXMETINIB] here?
A: The Kd was > 30 µM (inactive).

Q: Which Kd does the source give for `C=CC(=O)N1CCC(Oc2cc3c(Nc4ccc(Cl)c(Cl)c4F)ncnc3cc2OC)CC1` [POZIOTINIB] here?
A: The Kd was > 30 µM (inactive).

Biological target: STE20-like serine/threonine-protein kinase (Homo sapiens, UniProt Q9H2G2)
Sequence (Q9H2G2 whole entry): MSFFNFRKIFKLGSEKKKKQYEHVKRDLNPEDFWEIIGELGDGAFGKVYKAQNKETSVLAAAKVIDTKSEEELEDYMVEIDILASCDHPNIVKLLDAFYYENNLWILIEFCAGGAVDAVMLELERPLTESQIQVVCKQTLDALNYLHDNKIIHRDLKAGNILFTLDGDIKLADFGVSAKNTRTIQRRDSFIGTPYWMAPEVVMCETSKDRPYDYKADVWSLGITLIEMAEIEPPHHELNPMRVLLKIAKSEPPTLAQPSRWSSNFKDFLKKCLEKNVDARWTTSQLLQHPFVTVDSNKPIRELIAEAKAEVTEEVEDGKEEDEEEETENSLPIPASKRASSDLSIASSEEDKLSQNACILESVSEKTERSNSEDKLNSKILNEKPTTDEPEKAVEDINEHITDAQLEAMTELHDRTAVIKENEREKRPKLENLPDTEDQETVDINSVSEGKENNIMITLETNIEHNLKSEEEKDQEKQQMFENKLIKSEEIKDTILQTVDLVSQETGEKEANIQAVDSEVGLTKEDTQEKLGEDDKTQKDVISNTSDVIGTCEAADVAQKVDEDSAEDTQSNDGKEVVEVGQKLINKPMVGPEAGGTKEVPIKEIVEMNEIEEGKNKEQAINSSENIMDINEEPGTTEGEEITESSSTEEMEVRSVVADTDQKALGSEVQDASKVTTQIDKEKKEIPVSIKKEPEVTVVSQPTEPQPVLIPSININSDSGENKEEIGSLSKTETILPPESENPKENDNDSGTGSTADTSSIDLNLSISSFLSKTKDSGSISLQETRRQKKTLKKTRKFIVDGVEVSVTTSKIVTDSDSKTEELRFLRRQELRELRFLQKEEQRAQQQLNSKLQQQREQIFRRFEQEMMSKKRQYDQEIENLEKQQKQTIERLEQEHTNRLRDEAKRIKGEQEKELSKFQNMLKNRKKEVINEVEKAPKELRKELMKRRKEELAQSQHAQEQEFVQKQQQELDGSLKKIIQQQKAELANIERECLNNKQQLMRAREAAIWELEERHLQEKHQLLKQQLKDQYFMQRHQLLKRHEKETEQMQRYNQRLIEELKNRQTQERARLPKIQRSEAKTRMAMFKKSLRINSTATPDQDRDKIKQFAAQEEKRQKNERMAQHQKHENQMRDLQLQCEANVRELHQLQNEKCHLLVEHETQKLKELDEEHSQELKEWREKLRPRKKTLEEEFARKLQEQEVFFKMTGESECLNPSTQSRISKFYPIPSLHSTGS

Q: `O=C(O)[C@]1(Cc2cccc(Nc3nccs3)n2)CC[C@@H](Oc2cccc(Cl)c2F)CC1` [MK-5108] was tested. Which Kd did it give?
A: The Kd was > 30 µM (inactive).

Q: With `Cc1ccc(-n2nc(C(C)(C)C)cc2NC(=O)NCc2cc(F)ccc2Oc2ccc3c(cnn3CCO)c2)cc1` [PEXMETINIB] as the molecule, how does the Kd read?
A: Its Kd is > 30 µM (inactive).

Q: `C=CC(=O)N1CCC(Oc2cc3c(Nc4ccc(Cl)c(Cl)c4F)ncnc3cc2OC)CC1` [POZIOTINIB] was tested. Which Kd did it give?
A: Its Kd is > 30 µM (inactive).

Biological target: T3, Serine/threonine-protein kinase TAO1 (Homo sapiens, UniProt Q7L7X3)
T3 sequence (Q7L7X3 whole entry): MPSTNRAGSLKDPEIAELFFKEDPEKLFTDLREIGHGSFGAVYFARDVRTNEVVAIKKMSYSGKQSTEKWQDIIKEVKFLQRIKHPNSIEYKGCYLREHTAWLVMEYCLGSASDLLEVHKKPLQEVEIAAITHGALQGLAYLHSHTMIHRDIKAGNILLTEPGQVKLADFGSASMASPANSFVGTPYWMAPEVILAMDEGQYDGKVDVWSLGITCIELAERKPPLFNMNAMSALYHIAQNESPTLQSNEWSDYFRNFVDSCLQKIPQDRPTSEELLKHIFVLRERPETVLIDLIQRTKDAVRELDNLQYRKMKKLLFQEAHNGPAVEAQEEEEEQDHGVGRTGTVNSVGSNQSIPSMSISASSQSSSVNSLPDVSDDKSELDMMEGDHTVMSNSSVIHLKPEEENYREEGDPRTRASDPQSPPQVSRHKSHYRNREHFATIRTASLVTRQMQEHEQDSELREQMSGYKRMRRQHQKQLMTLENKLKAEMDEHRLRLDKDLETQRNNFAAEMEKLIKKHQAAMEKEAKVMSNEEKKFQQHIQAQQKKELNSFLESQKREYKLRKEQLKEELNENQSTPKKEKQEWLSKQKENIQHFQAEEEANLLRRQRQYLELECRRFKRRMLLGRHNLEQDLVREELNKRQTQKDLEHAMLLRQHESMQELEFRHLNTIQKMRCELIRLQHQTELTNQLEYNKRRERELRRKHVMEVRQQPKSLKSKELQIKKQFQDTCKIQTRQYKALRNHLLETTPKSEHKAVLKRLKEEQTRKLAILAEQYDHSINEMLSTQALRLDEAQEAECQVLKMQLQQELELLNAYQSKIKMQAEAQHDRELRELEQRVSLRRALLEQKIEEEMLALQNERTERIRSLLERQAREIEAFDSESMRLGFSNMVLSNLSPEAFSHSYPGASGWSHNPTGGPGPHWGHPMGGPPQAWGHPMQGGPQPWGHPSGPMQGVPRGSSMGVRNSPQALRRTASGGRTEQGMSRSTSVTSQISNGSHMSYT

Q: Which Kd does the source give for `O=C(O)[C@]1(Cc2cccc(Nc3nccs3)n2)CC[C@@H](Oc2cccc(Cl)c2F)CC1` [MK-5108] here?
A: The Kd was > 30 µM (inactive).

Q: With `Cc1ccc(-n2nc(C(C)(C)C)cc2NC(=O)NCc2cc(F)ccc2Oc2ccc3c(cnn3CCO)c2)cc1` [PEXMETINIB] as the molecule, how does the Kd read?
A: Its Kd is > 30 µM (inactive).

Q: How did the Kd turn out when `C=CC(=O)N1CCC(Oc2cc3c(Nc4ccc(Cl)c(Cl)c4F)ncnc3cc2OC)CC1` [POZIOTINIB] was run?
A: Its Kd is > 30 µM (inactive).

Biological target: Non-receptor tyrosine-protein kinase TYK2 (Homo sapiens, UniProt P29597)
Sequence (P29597 whole entry): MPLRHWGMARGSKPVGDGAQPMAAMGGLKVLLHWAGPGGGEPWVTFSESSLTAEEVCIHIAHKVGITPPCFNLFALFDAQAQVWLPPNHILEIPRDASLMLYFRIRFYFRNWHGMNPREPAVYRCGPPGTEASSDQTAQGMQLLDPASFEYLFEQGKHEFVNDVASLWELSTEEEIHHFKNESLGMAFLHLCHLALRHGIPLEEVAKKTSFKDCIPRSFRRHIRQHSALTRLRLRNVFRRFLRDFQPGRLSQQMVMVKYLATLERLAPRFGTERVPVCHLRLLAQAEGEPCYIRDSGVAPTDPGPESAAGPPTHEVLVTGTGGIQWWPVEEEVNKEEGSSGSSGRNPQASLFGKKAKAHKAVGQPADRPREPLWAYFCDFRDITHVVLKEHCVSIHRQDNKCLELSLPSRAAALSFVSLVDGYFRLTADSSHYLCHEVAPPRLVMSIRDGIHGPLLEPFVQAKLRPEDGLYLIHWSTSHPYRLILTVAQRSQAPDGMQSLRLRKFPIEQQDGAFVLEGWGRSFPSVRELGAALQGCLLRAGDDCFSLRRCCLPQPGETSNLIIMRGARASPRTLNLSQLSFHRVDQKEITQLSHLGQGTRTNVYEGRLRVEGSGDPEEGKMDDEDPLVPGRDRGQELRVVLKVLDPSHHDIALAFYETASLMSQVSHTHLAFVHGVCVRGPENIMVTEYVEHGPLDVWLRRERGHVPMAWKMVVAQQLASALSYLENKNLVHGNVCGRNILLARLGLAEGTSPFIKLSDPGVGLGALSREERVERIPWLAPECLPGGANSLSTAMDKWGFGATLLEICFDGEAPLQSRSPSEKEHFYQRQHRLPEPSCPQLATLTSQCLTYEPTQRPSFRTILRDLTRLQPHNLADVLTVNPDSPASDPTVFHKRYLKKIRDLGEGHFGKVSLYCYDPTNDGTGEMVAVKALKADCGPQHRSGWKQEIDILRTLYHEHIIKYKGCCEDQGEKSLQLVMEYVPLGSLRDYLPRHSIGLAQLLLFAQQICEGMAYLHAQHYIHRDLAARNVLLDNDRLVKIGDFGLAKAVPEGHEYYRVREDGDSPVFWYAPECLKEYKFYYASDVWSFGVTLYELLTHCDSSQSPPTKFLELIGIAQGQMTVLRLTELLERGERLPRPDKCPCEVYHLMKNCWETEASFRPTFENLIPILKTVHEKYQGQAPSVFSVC

Q: Which Kd does the source give for `O=C(O)[C@]1(Cc2cccc(Nc3nccs3)n2)CC[C@@H](Oc2cccc(Cl)c2F)CC1` [MK-5108] here?
A: The Kd was > 30 µM (inactive).

Q: How did the Kd turn out when `Cc1ccc(-n2nc(C(C)(C)C)cc2NC(=O)NCc2cc(F)ccc2Oc2ccc3c(cnn3CCO)c2)cc1` [PEXMETINIB] was run?
A: The Kd was > 30 µM (inactive).

Q: Which Kd does the source give for `C=CC(=O)N1CCC(Oc2cc3c(Nc4ccc(Cl)c(Cl)c4F)ncnc3cc2OC)CC1` [POZIOTINIB] here?
A: Its Kd is > 30 µM (inactive).
